Data published in patent publication US12398141B2 (SHANGHAI SYNERGY PHARMACEUTICAL SCIENCES CO., LTD, priority 2019, dated 2025).

Legend:
Blast T cell = assay: Cell proliferation test of IL-2 stimulated Blast T cell; type: cell-based; details: Homo sapiens; IL-2 stimulated Blast T cell proliferation, 72 hours
Method: Inhibiting test of the compounds of the invention on proliferation of Blast T cell and TF-1 cell (American type culture collection) was carried out by the following method. The tested compounds […], and […] were dissolved in dimethyl sulfoxide from 0.0006 to 10 μM in quadruplicate dilutions. […] 10 μg/ml […] was added to stimulate and obtain cells with a density of 2×10^6/mL, which were incubated for 3 days. The cells were washed with phosphate buffer for three times and IL-2 (100 u/ml) was added to stimulate for 1 week. Cells were suspended using the culture medium and seeded at 5×10^4 cell/well density into 96-well plates, and incubated for 1 h with the prepared test compound or DMSO control at various concentrations from 0.0006 to 10 μM diluted by 4-fold volume. After incubation with 20 u/ml of IL-2 (50 μl/well without reference well) for 72 hours, Celltiter Glo® reagent (Promega, G7571) was added and mixed for 5 minutes, then incubated for 30 minutes at room temperature. The luminescence value was read on SpectraMax L (Molecular Device). […] The IC50 values of the corresponding compounds were then obtained by fitting by using the XLFit fitting tool in excel.

TF-1 cell = TF-1 cell proliferation test; type: cell-based; details: Homo sapiens, 72 h
Method: Inhibiting test of the compounds of the invention on proliferation of Blast T cell and TF-1 cell (American type culture collection) was carried out by the following method. The tested compounds […], and […] were dissolved in dimethyl sulfoxide from 0.0006 to 10 μM in quadruplicate dilutions. […] The luminescence value was read on Microplate Reader (Molecular Device). […] The IC50 values of the corresponding compounds were then obtained by fitting by using the XLFit fitting tool in excel.

male ICR mice = assay: Carrageenan-induced paw swelling in mice; type: in vivo; details: 10 mg/kg intragastric
Method: (§1) The inhibiting effects of compounds H01, H07, H11, H12, H14, H15, H22, H25, H29, H30, H33, H39 and H44 on paw swelling in mice were determined after intragastric administration by using male ICR mice (ShanghaiSippr-BK laboratory animal Co. Ltd.), aged 8 weeks and weighing 22-24 g as test animals. The anti-inflammatory pharmacodynamics characteristic of the compounds of the invention was discussed.
A certain amount of compounds were taken and dissolved in 4% Tween 80/0.5% hydroxy propyl methyl cellulose solution. A volume of intragastric administration in mice was 10 ml/kg.
Mice were given 10 mg/kg compounds H01, H07, H11, H12, H14, H15, H22, H25, H29, H30, H33, H39, and H44 and the positive drug indomethacin (Diamond Reagent Co., Ltd., China) by intragastric administration at the dosages shown in the table below and 20 μL 1% (W/V) carrageenan was injected subcutaneously into the plantar 0.5 h later. A paw volume was measured with a paw swelling meter before and at different time points after modeling (0.5 h, 1 h and 2 h). According to the formula: paw swelling rate=(paw volume after administration−basic paw volume)/basic paw volume×100, the inhibiting effect of the compounds on paw volume was calculated. The basic paw volume was a paw volume before administration.

Sprague-Dawley (SD) mice = assay: Concanavalin-induced paw swelling in mice; type: in vivo; details: 10 mg/kg intragastric
Method: as §1, with “H13,” for “H01, H07, H11, H12,”, “H09, H11” for “H15, H22, H25, H29, H30, H33, H39”, “compounds of Example 12” for “H44”, “Sprague-Dawley (SD)” for “male ICR”, “6-7” for “8”, “160-180” for “22-24”
A certain amount of compounds were taken and dissolved in 4% Tween 80/0.5% hydroxy propyl methyl cellulose solution.
Mice were given compounds H01, H07, H11, H12, H14, H15, H22, H25, H29, H30, H33, H39, and H44 and the positive drug indomethacin (Diamond Reagent Co., Ltd., China) by intragastric administration at the dosages shown in the table below and 0.1 ml 0.03% (W/V) concanavalin was injected subcutaneously into the plantar 0.5 h later. A paw volume was measured with a paw swelling meter before modeling and 1 h, 2 h, 4 h and 6 h after modeling. According to the formula: paw swelling rate=(paw volume after administration−basic paw volume)/basic paw volume×100, the inhibiting effect of the compounds on paw volume was calculated. The basic paw volume was a paw volume before administration.

[1] = Pharmacokinetic test after intragastric administration; type: in vivo; details: Sprague-Dawley, mouse, plasma, po, SD mice, 5 mg/kg intragastric
Method: Drug concentrations of compounds H01, H07, H11, H12, H14, H15, H22, H25, H29, H30, H33, H39 and H44 intragastrically administrated in plasma by using LC/MS/MS method at various time points were determined by using Sprague-Dawley (SD) […], aged 7-8 weeks and weighing […] as test animals. Pharmacokinetic behavior of the compounds of the invention in […] was studied and its pharmacokinetic characteristics were evaluated.
A certain amount of compounds was taken and dissolved in 50% PEG400/water to prepare a uniform solution.
Mice were administered intragastrically with the above compounds with a dosage of 5 mg/kg. Blood (0.2 ml) was taken from orbits before administration and 0.083 h, 0.25 h, 0.5 h, 1.0 h, 2.0 h, 4.0 h, 6.0 h, 8.0 h, 12.0 h and 24.0 h after administration. The blood was placed in anticoagulant tubes containing dipotassium ethylene glycol diethyl ether diamine tetraacetic acid, centrifugated at 6000 rpm at 4° C. for 10 minutes to separate plasma and saved at −80° C.
50 μL plasma at various time was taken and 150 μL acetonitrile solution containing internal standard tolbutamide (Sigma, USA) was added, mixed and stirred for 5 minutes. After centrifugation for 5 minutes at 12,000 rpm, 100 μL supernatant was taken, mixed with 200 μL water, following by sample injection and analysis.
Liquid chromatogram system was LC-20AD UFLC High Performance Liquid Chromatography system. Mass spectrum system was AB Sciex API4000 triple quadrupole mass spectrometer equipped with Electron Spray Ionization (ESI) (Applied Biosystems, Canada). A software for controlling liquid chromatography-mass spectrometry and quantitative analysis was Anna Rust 1.6 (Applied Biosystems, Canada). Pharmacokinetic parameters were analyzed by WinNonlin (version 5.2, Pharsight, Mountain View, […]) non-compartment model.
The test compound was dissolved in dimethyl sulfoxide to prepare a stock solution with a concentration of 1 mg/mL. The solution was diluted with 50% acetonitrile to obtain a series of standard working solutions with concentrations of 10 μg/mL, 3 μg/mL, 1 μg/mL, 0.3 μg/mL, 0.1 μg/mL, 0.03 μg/mL and 0.01 μg/mL, and a series of standard quality control solutions with concentrations of 8 μg/mL, 0.5 μg/mL, 0.03 μg/mL. 5 μL standard solution was mixed with 45 μL blank plasma substrate uniformly to obtain standard solutions of each concentration of a standard curve (1000 ng/mL, 500 ng/mL, 200 ng/mL, 100 ng/mL, 10 ng/mL, 5 ng/mL, 2 and 1 ng/mL) and quality control solutions (plasma samples: 800 ng/mL, 50 and 3 ng/mL).
Internal standard tolbutamide solid powder was dissolved in dimethyl sulfoxide to prepare a 1 mg/mL stock solution. The stock solution was diluted with 100% acetonitrile to obtain 200 ng/mL solution as a protein precipitation solution.

[2] = Collagen-induced rheumatoid arthritis model, clinical score; type: in vivo, mice; design: key: 0-4 per limb by redness/deformity, max 16 per animal; details: clinical score 0-16 per animal, Day 0 (before modeling)
Method: (§2) The effects of compounds H07, H12, H14, H25, H30, H39 and H44 on rheumatoid arthritis in […] were determined after long term administration by using Lewis male […] (Beijing Vital River Laboratory Animal Technology Co., Ltd.), aged 5-6 weeks and weighing […] as test animals. The anti-inflammatory pharmacodynamics characteristic of the compounds of the invention was discussed.
(§3) A certain amount of compounds were taken and dissolved in 4% Tween 80/0.5% hydroxy propyl methyl cellulose solution. A volume of intragastric administration of mice was 10 ml/kg.
(§4) Collagen type II was dissolved in 0.1M acetic acid and kept in a 4° C. refrigerator overnight at a collagen concentration of 4 mg/mL. Same volume of incomplete Freund adjuvant (Sigma, USA) was added in collagen before injection in test, which was emulsified high speed homogenizer (30000 rpm) to prepare a collagen emulsion. This procedure was carried out on ice.
(§5) Mice were immunologically injected with the collagen emulsion by two separate times for modeling on days 1 and 7 (the day before modeling was day 0). 0.1 ml of collagen emulsion prepared as above was injected intradermally into a root of tail at a single point, and 0.2 ml was injected intradermally into back at two points. The animals were subjected to clinical score and paw volume test from day 10 to day 14 after modeling. Animals successfully modeled (average clinical score≥3 points/animal) were assigned to each administration group, with each group included 10 animals. They were administrated intragastrically with above compounds or resolvents at a dosage of 10 mg/kg twice/day, and administrated intragastrically with methotrexate (2 mg/kg, Sigma, USA) every three days, until day 27. During the test, the […] were scored twice a week, and the paw volume and body weight were measured twice.
(§6) According to the different degrees of lesions (redness and joint deformation), the scores were ranged from 0 to 4 points, with the highest score of 4 points for each limb and 16 points for each animal. Scoring standards are as follows: 0, no redness; 1, slight redness on mid legs (tarsals) or ankles; 2, slight redness from ankles to mid legs (tarsals); 3, medium redness from ankles to tarsometatarsal joints; 4, severe redness from toes or fingers to ankles or wrist joints.

Lewis male mice = assay: as above; type: in vivo; design: key: 0-4 per limb by redness/deformity, max 16 per animal; details: clinical score 0-16 per animal, compounds 10 mg/kg twice/day, methotrexate 2 mg/kg every three days
Method: as §2, §3, §4, §5, §6

Row | SMILES | IC50 (Blast T cell) [µM] | IC50 (TF-1 cell) [µM] | Paw swelling_0.5 h (%) (male ICR mice; 0.5 h) | Paw swelling rate_1 h (%) (male ICR mice; 1 h) | Paw swelling rate_2 h (%) (male ICR mice; 2 h) | Paw swelling rate_1 h (%) (Sprague-Dawley (SD) mice; 1 h) | Paw swelling rate_2 h (%) (Sprague-Dawley (SD) mice; 2 h) | Paw swelling rate_4 h (%) (Sprague-Dawley (SD) mice; 4 h) | Paw swelling rate_6 h (%) (Sprague-Dawley (SD) mice; 6 h) | AUC(0-t) ([1]; read-out: Area under the curve (AUC0-24, ng/ml · h)) [ng·h/mL] | Cmax ([1]; read-out: Plasma concentration (Cmax, ng/ml)) [ng/mL] | half-life ([1]; read-out: half life (T1/2, h) (converted)) [h] | Score Day 0 [2] | Score Day 13 (Lewis male mice; Day 13) | Score Day 14 (Lewis male mice; Day 14) | Score Day 18 (Lewis male mice; Day 18) | Score Day 21 (Lewis male mice; Day 21) | Score Day 25 (Lewis male mice; Day 25) | Score Day 27 (Lewis male mice; Day 27)
1 | CC[C@@H]1CN(C(=O)NCC(F)(F)F)CC1Nc1c(C#N)cnc2[nH]ccc12 (stereo partly shown) [Compound H01] | 0.013 | 0.67 | 33.99 ± 1.69 | 40.93 ± 1.64 | 41.56 ± 5.23 | 25.70 ± 1.50 | 25.20 ± 2.40 | 31.20 ± 3.10 | 30.20 ± 3.10 | 1720 ± 220 | 578 ± 72 | 2.13 ± 0.27 | – | – | – | – | – | – | –
2 | CN(Cc1cnc2nc(N)nc(N)c2n1)c1ccc(C(=O)N[C@@H](CCC(=O)O)C(=O)O)cc1 [Methotrexate, reference compound] | – | – | – | – | – | – | – | – | – | – | – | – | 0.00 ± 0.00 | 3.10 ± 0.43 | 3.60 ± 0.37 | 4.10 ± 0.47 | 6.45 ± 0.23 | 8.87 ± 0.21 | 9.65 ± 0.13
